System: 186277-243-T-J2-PDC complex spheroid growth
Assay: Anticancer human tumor 186277-243-T-J2-PDC patient-derived colon adenocarcinoma cell line growth inhibition [AhR]
Details: for IC50: curve of first compound; for viability, T/C: stronger effect = lower value
In short: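 Agents were dosed in half-log steps down from roughly clinical Cmax, or from 10 microM where Cmax was unknown, alone and with AhR antagonists. Read-out: percent test/control growth of tumor spheroids containing HUVEC and MSC stromal cells.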

[1] = second compound 0.1 µM, first compound 0.0316 µM
[2] = second compound 0.1 µM, first compound 0.1 µM
[3] = second compound 0.1 µM, first compound 0.316 µM
[4] = second compound 0.1 µM, first compound 1 µM
[5] = second compound 0.1 µM, first compound 3.16 µM
[6] = second compound 0.1 µM, first compound 10 µM
[7] = second compound 0.316 µM, first compound 0.0316 µM
[8] = second compound 0.316 µM, first compound 0.1 µM
[9] = second compound 0.316 µM, first compound 0.316 µM
[10] = second compound 0.316 µM, first compound 1 µM
[11] = second compound 0.316 µM, first compound 3.16 µM
[12] = second compound 0.316 µM, first compound 10 µM
[13] = second compound 1 µM, first compound 0.0316 µM
[14] = second compound 1 µM, first compound 0.1 µM
[15] = second compound 1 µM, first compound 0.316 µM
[16] = second compound 1 µM, first compound 1 µM
[17] = second compound 1 µM, first compound 3.16 µM
[18] = second compound 1 µM, first compound 10 µM
[19] = second compound 3.16 µM, first compound 0.0316 µM
[20] = second compound 3.16 µM, first compound 0.1 µM
[21] = second compound 3.16 µM, first compound 0.316 µM
[22] = second compound 3.16 µM, first compound 1 µM
[23] = second compound 3.16 µM, first compound 3.16 µM
[24] = second compound 3.16 µM, first compound 10 µM
[25] = second compound 10 µM, first compound 0.0316 µM
[26] = second compound 10 µM, first compound 0.1 µM
[27] = second compound 10 µM, first compound 0.316 µM
[28] = second compound 10 µM, first compound 1 µM
[29] = second compound 10 µM, first compound 3.16 µM
[30] = second compound 10 µM, first compound 10 µM
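Further: spheroids exposed to compounds for seven days before the viability read.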
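Wherever viability, T/C is given: luminescent signal used as a stand-in for viable cell amount; 100% = DMSO vehicle control wells.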

## CC(C)CC(NC(=O)C(Cc1ccccc1)NC(=O)c1cnccn1)B(O)O (stereo not given) + Cc1cncc(-c2nc(NCCc3c[nH]c4ccccc34)c3ncn(C(C)C)c3n2)c1
Second compound 0.1 µM
  IC50: 15.8 nM
Second compound 0.316 µM
  IC50: 15.8 nM
Second compound 1 µM
  IC50: 16.4 nM
Second compound 3.16 µM
  IC50: 12.4 nM
Second compound 10 µM
  IC50: < 0.949 nM
Second compound 0.1 µM, first compound 0.000949 µM
  viability, T/C: 103%
Second compound 0.1 µM, first compound 0.003 µM
  viability, T/C: 108%
Second compound 0.1 µM, first compound 0.00949 µM
  viability, T/C: 88.1%
Second compound 0.1 µM, first compound 0.03 µM
  viability, T/C: 1.86%
Second compound 0.1 µM, first compound 0.0949 µM
  viability, T/C: 0.49%
Second compound 0.1 µM, first compound 0.3 µM
  viability, T/C: 0.14%
Second compound 0.316 µM, first compound 0.000949 µM
  viability, T/C: 131%
Second compound 0.316 µM, first compound 0.003 µM
  viability, T/C: 120%
Second compound 0.316 µM, first compound 0.00949 µM
  viability, T/C: 89.1%
Second compound 0.316 µM, first compound 0.03 µM
  viability, T/C: 0.33%
Second compound 0.316 µM, first compound 0.0949 µM
  viability, T/C: 0.05%
Second compound 0.316 µM, first compound 0.3 µM
  viability, T/C: 0.12%
Second compound 1 µM, first compound 0.000949 µM
  viability, T/C: 97.3%
Second compound 1 µM, first compound 0.003 µM
  viability, T/C: 107%
Second compound 1 µM, first compound 0.00949 µM
  viability, T/C: 95.2%
Second compound 1 µM, first compound 0.03 µM
  viability, T/C: 0.51%
Second compound 1 µM, first compound 0.0949 µM
  viability, T/C: 0.15%
Second compound 1 µM, first compound 0.3 µM
  viability, T/C: 0.11%
Second compound 3.16 µM, first compound 0.000949 µM
  viability, T/C: 102%
Second compound 3.16 µM, first compound 0.003 µM
  viability, T/C: 116%
Second compound 3.16 µM, first compound 0.00949 µM
  viability, T/C: 65.1%
Second compound 3.16 µM, first compound 0.03 µM
  viability, T/C: 0.66%
Second compound 3.16 µM, first compound 0.0949 µM
  viability, T/C: 0.05%
Second compound 3.16 µM, first compound 0.3 µM
  viability, T/C: 0.13%
Second compound 10 µM, first compound 0.000949 µM
  viability, T/C: 44.9%
Second compound 10 µM, first compound 0.003 µM
  viability, T/C: 53.5%
Second compound 10 µM, first compound 0.00949 µM
  viability, T/C: 1.63%
Second compound 10 µM, first compound 0.03 µM
  viability, T/C: 0.26%
Second compound 10 µM, first compound 0.0949 µM
  viability, T/C: 0.13%
Second compound 10 µM, first compound 0.3 µM
  viability, T/C: 0.2%

## COc1cc(Nc2ncc3c(n2)-c2ccc(Cl)cc2C(c2c(F)cccc2OC)=NC3)ccc1C(=O)O + Cc1cncc(-c2nc(NCCc3c[nH]c4ccccc34)c3ncn(C(C)C)c3n2)c1
Second compound 0.1 µM
  IC50: > 10000 nM
Second compound 0.316 µM
  IC50: > 10000 nM
Second compound 1 µM
  IC50: > 10000 nM
Second compound 3.16 µM
  IC50: > 10000 nM
Second compound 10 µM
  IC50: < 31.6 nM
[1]
  viability, T/C: 90.2%
[2]
  viability, T/C: 77.9%
[3]
  viability, T/C: 70.2%
[4]
  viability, T/C: 61.6%
[5]
  viability, T/C: 70.5%
[6]
  viability, T/C: 74.5%
[7]
  viability, T/C: 91.9%
[8]
  viability, T/C: 78.6%
[9]
  viability, T/C: 72.3%
[10]
  viability, T/C: 61.8%
[11]
  viability, T/C: 67.1%
[12]
  viability, T/C: 72.2%
[13]
  viability, T/C: 96.9%
[14]
  viability, T/C: 75.4%
[15]
  viability, T/C: 74.4%
[16]
  viability, T/C: 67.1%
[17]
  viability, T/C: 64.3%
[18]
  viability, T/C: 70.6%
[19]
  viability, T/C: 93.2%
[20]
  viability, T/C: 71.4%
[21]
  viability, T/C: 71.9%
[22]
  viability, T/C: 59.4%
[23]
  viability, T/C: 63%
[24]
  viability, T/C: 71.5%
[25]
  viability, T/C: 37.9%
[26]
  viability, T/C: 27.4%
[27]
  viability, T/C: 23.2%
[28]
  viability, T/C: 24.6%
[29]
  viability, T/C: 23.8%
[30]
  viability, T/C: 31.6%

## NS(=O)(=O)OCC1CC(n2ccc3c(NC4CCc5ccccc54)ncnc32)CC1O (stereo not given) + Cc1cncc(-c2nc(NCCc3c[nH]c4ccccc34)c3ncn(C(C)C)c3n2)c1
Second compound 0.1 µM
  IC50: 693 nM
Second compound 0.316 µM
  IC50: 563 nM
Second compound 1 µM
  IC50: 492 nM
Second compound 3.16 µM
  IC50: 365 nM
Second compound 10 µM
  IC50: 41 nM
[1]
  viability, T/C: 114%
[2]
  viability, T/C: 93.1%
[3]
  viability, T/C: 80.4%
[4]
  viability, T/C: 35.6%
[5]
  viability, T/C: 13.2%
[6]
  viability, T/C: 3.87%
[7]
  viability, T/C: 104%
[8]
  viability, T/C: 96.2%
[9]
  viability, T/C: 71.4%
[10]
  viability, T/C: 28.6%
[11]
  viability, T/C: 9.15%
[12]
  viability, T/C: 3.24%
[13]
  viability, T/C: 96%
[14]
  viability, T/C: 89.8%
[15]
  viability, T/C: 67.6%
[16]
  viability, T/C: 22.2%
[17]
  viability, T/C: 5.08%
[18]
  viability, T/C: 2.62%
[19]
  viability, T/C: 91.8%
[20]
  viability, T/C: 86.8%
[21]
  viability, T/C: 52.2%
[22]
  viability, T/C: 21.3%
[23]
  viability, T/C: 5%
[24]
  viability, T/C: 2.12%
[25]
  viability, T/C: 57.8%
[26]
  viability, T/C: 24.4%
[27]
  viability, T/C: 9.9%
[28]
  viability, T/C: 7.65%
[29]
  viability, T/C: 2.02%
[30]
  viability, T/C: 1.58%

## O=C(C=Cc1cccc(S(=O)(=O)Nc2ccccc2)c1)NO + Cc1cncc(-c2nc(NCCc3c[nH]c4ccccc34)c3ncn(C(C)C)c3n2)c1
Second compound 0.1 µM
  IC50: 955 nM
Second compound 0.316 µM
  IC50: 832 nM
Second compound 1 µM
  IC50: 818 nM
Second compound 3.16 µM
  IC50: 756 nM
Second compound 10 µM
  IC50: 168 nM
[1]
  viability, T/C: 98.9%
[2]
  viability, T/C: 89.6%
[3]
  viability, T/C: 94%
[4]
  viability, T/C: 47.9%
[5]
  viability, T/C: 8.19%
[6]
  viability, T/C: 2.59%
[7]
  viability, T/C: 92.1%
[8]
  viability, T/C: 89.1%
[9]
  viability, T/C: 94.8%
[10]
  viability, T/C: 42%
[11]
  viability, T/C: 7.8%
[12]
  viability, T/C: 2.18%
[13]
  viability, T/C: 105%
[14]
  viability, T/C: 95.7%
[15]
  viability, T/C: 86.8%
[16]
  viability, T/C: 42.2%
[17]
  viability, T/C: 9.76%
[18]
  viability, T/C: 2.85%
[19]
  viability, T/C: 106%
[20]
  viability, T/C: 103%
[21]
  viability, T/C: 111%
[22]
  viability, T/C: 31.8%
[23]
  viability, T/C: 10.6%
[24]
  viability, T/C: 3.82%
[25]
  viability, T/C: 76.9%
[26]
  viability, T/C: 67.9%
[27]
  viability, T/C: 28.2%
[28]
  viability, T/C: 10.7%
[29]
  viability, T/C: 6.37%
[30]
  viability, T/C: 3.77%

— PubChem BioAssay AID1918991 (Molecular Pharmacology Branch, DTP, NCI, 2023)
